Results: patent US7153822B2, “Compositions and methods for modulating connexin hemichannels” (Wyeth, priority 2002, dated 2006)
“Also recorded” adds a separate entry of the source. Square brackets hold non-standard residues; d marks the D form. Peptide text beside a SMILES is read from it. dHyp = O=C(O)[C@H]1C[C@H](O)CN1

How the values were obtained:
[1] = system: human osteoblast cultures; settings: dye transfer after Lucifer Yellow injection; cited from earlier work
Ventricular myocytes = assay: volume measurements in cardiomyocytes during metabolic inhibition; format: cell-based, rat; settings: 0.1 nM in stress medium, six experiments (stress alone 1.06±0.02, control 0.94±0.04)
Description: 1. Methods: Ventricular myocytes were isolated from neonate rats by trypsin digestion and plated onto collagen-coated cover slips. After four days the myocytes formed confluent and synchronously beating sheets of cells. To measure cell volume cells were loaded with calcein-AM (5 μM in control buffer) for 15 minutes at 37° C. and the cover slips mounted in an open bath chamber. The following experiments were performed at room temperature. Using a Leica laser confocal microscope, an optical cross-section was performed every 20 seconds throughout the duration of the experiments.
The optical cross-sections were analyzed using Metamorph (Universal Imaging). The area of the cell was determined as the area of pixels with fluorescence intensities higher than a threshold value chosen to minimize background induced fluctuations. Data are presented as relative volumes by dividing each value by the average area under control conditions (the last measurement before metabolic stress).
Solutions: Control buffer (in mM): NaCl 136, KCl 4, MgCl2 0.8, CaCl2 1.8 HEPES 5, MES 5, Glucose 6, pH 7.3 Stress buffer (in mM): NaCl 136, KCl 8, MgCl2 0.8, CaCl2 1.8 HEPES 5, MES 5, Deoxy-glucose 10, pH 6.2

in vivo = settings: rat, ip
Description: Compound 1 was delivered by an osmotic minipump (Alzet model 2ML4) that was inserted into the intraperitoneal (i.p.) cavity immediately prior to induction of the myocardial infarction. The pump was filled with vehicle (isotonic saline) or Compound 1 and primed at 37° C. for 24 hours prior to the operation. In order to ensure that the therapeutic plasma concentration was obtained already at the time of infarction, a loading dose of Compound 1 was given s.c. prior to ligation of the LAD.
After administration of the s.c. loading dose of Compound 1 and after i.p. insertion of the osmotic minipump, a left thoracotomy was performed, and the left anterior decending artery was ligated using a 6-0 silk suture. The thorax is closed in layers, and a negative pressure was induced in the pleural cavity to unfold the lungs. Sham-operated animals were subjected to the same procedure without ligation of the LAD. Postoperatively, the animal were allowed to recover in a heated cabinet at 30° C. with 50% oxygen until the next morning. To prevent dehydration during the recovery period, the rat was given 5 ml 5% glucose s.c. immediately after completion of surgery and another 5 ml 5% glucose at 4 p.m. To relieve postoperative pain, the rat was treated with buprenorphine (20 μg/100 g s.c. b.i.d.) and meloxicam (0.1 mg/100 g s.c. once daily) for three days after the myocardial infarction. […] Plasma concentrations of Compound 1 were measured by mass spectrometry following solid phase extraction.

[2] = system: osteoblastic rat osteosarcoma cell lines; settings: dye transfer after Lucifer Yellow injection; cited from earlier work
the receptor = assay: in situ binding and animal studies
Description: Compounds used in this example were made using standard solid phase Fmoc chemistry. See the prior examples. Identification was performed by mass spectrometry, and the purity, determined by RP-HPLC. […] Initial studies with compound 1 in 1 nM, 10 nM, 50 nM and 100 nM will determine whether studies with the following peptides compound 3 (H-GAG-4-Hyp-PY-NH2) and compound 4 (H-GNY-NH2) are conducted. These studies will also determine whether studies involving specific kinase inhibitors are conducted.

[3] = system: rats subjected to myocardial infarction; assay: myocardial infarction by LAD ligation in rats, three weeks of treatment; format: in vivo, rat
Description: Male Lewis rats (300–350 g; M&B, L1. Skendsved, Denmark) were anaesthetized with a neurolept anaesthesic combination (Hypnorm® (fentanyl citrate 0.315 mg/ml and fluanisone 10 mg/ml)+midazolam (5 mg/ml)). Commercial solution of midazolam was diluted 1:2 in distilled water. Three parts of the diluted midazolam is mixed with one part hypnorm®. Anesthesia was induced by s.c. administration of 0.2 ml of this solution per 100 gram rat. When surgical anesthesia was established, an endotracheal cannula is inserted and the animal is artificially ventilated using a Harvard rodent ventilator adjusted to maintain arterial pH at 7.3–7.5 during surgery.
Doses used are shown below in Table I:
Three weeks after ligation of LAD, the rats were anesthetized with an i.p, injection of pentobarbital (50 mg/kg). The animals were placed on a heating blanket in order to maintain body temperature at 37° C. Tracheotomy was performed and the rat was ventilated with oxygen using a Harvard rodent ventilator. The ventilator was adjusted to maintain arterial pH at 7.35–7.45. PE50 catheters were placed in the femoral vein and artery for i.v. administration and arterial pressure measurements, respectively. After insertion of the femoral i.v. catheter, the animal was paralysed by i.v. administration of pancuronium, 1 mg/kg. Anaesthesia and respiratory paralysis is maintained by continuous i.v. infusion of pentobarbital (2.5 mg/kg/h) and pancuronium (1 mg/kg/h) delivered in isotonic saline (50 μl/min). A tygon catheter was inserted into the left ventricle via the right carotid artery for determination of left ventricular end-diastolic pressure. After recording of left ventricular end-diastolic pressure (LVEDP), The hearts are removed from the bodies by cutting the veins and arteries a few mm from the hearts. […]
Using a microscope with a stage that can be moved in predetermined steps, both Masson-trichrome stained slides were examined and the number of points hitting fibrous tissue (blue stained in Masson-trichrome) and normal tissue are counted. […] Infarct size was calculated as % fibrous tissue in the heart.

connexin 43 (Cx43) = assay: immunoprecipitation and immunoblot of phosphorylated connexin 43; format: cell-based
Description: H9c2 cells were seeded in 24-multi well dishes in a density of 7,900 cells/cm^2 (˜15,000 cells/well) and grown for 3 days in MEM suplemented with 10% foetal calf serum (FCS) and 1000 units penicillin/1000 μg streptomycin (pen/strep) in an atmosphere of 5% CO2 and 100% humidity at 37° C.
The labelled cells were incubated in Triton X-100 lysis buffer (˜5*10^7 cells/ml) for 1 hr at 4° C. The lysate is centrifuged 30 min at 20,000*g for 30 min. The supernatant was precleared by adding 10 ul Sepharose per 200 μl supernatant. The precleared supernatant were then added 0.5–1 μg phospho-tyrosine or phospho-serine antibodies (Sigma) and incubated for 1.5 hr at 4° C. in an orbital shaker. The antibody-complex was then captured by incubation with 50 μl of a 1:1 slurry of protein G Sepharose for 1.5 hr. Finally the complex were extensively washed with 0.1% (w/v) Triton X-100, 50 mM Tris, pH 7.4, 300 mM NaCl and 5 mM EDTA.
The complexes were loaded onto a 12% SDS gel and blotted onto a PVDF membrane. The membrane is blocked with 0.1% Tween 20, 50 mM Tris, pH 7.4, 300 mM NaCl, 5% dry milk (TBST) for minimum 2 h. The membrane was subsequently incubated with connexin 43 specific antibodies (Zymed) for 1.5 h at RT and developed with ECL+ (Amersham).

CC(=O)N[C@H](Cc1ccc(O)cc1)C(=O)N1CCC[C@@H]1C(=O)N1C[C@@H](O)C[C@@H]1C(=O)NCC(=O)N[C@H](C)C(=O)NCC(N)=O [Compound 1, Ac-D-Tyr-D-Pro-D-4Hyp-Gly-D-Ala-Gly-NH2] (Ac-[dY][dP][dHyp]G[dA]G-NH2)
reversal of hypoxia-induced decrease of calcium wave propagation [1]: completely reversed
average relative volume during stress (Ventricular myocytes): 0.93±0.05
level at time molar at 504 h (in vivo; 11 pmol/kg/min): 1.7 ± 0.4 nM
level at time molar at 504 h (in vivo; 110 pmol/kg/min): 5.7 ± 0.4 nM
level at time molar at 504 h (in vivo; 1100 pmol/kg/min): 93.7 ± 12.3 nM
reversal of hypoxia-induced decrease of calcium wave propagation [2]: completely reversed
binding to the receptor (the receptor): nano-molar range
left ventricular end-diastolic pressure ([3]; either dose, three weeks): reduced left ventricular end-diastolic pressure
heart weight-body weight ratio ([3]; rats, three weeks after MI): reduced by the two highest doses
reduction of infarct size relative to vehicle treated MI rats ([3]; treatment for three weeks): 20–50%
connexin 43 tyrosine phosphorylation (connexin 43 (Cx43); cardiomyocytes exposed for 4 h with 0, 1, 10, 50 and 100 nM): increase connexin 43 tyrosine phosphorylation
tyrosine phosphorylation of connexin 43 (connexin 43 (Cx43); cultured H9c2 cardiomyocytes): phosphorylation of Cx43 tyrosine; also recorded: mediates tyrosine phosphorylation of connexin 43
Ser-phosphorylation of connexin 43 (connexin 43 (Cx43); in some experiments): decrease Ser-phosphorylation
